{"source": "ChEMBL document CHEMBL1154622", "about": "“Structure-guided design of potent and selective pyrimidylpyrrole inhibitors of extracellular signal-regulated kinase (ERK) using conformational control” (J Med Chem, 2009)", "key": {"[1]": {"target": "RAC-gamma serine/threonine-protein kinase (Homo sapiens, UniProt Q9Y243)", "sequence (Q9Y243 whole entry)": "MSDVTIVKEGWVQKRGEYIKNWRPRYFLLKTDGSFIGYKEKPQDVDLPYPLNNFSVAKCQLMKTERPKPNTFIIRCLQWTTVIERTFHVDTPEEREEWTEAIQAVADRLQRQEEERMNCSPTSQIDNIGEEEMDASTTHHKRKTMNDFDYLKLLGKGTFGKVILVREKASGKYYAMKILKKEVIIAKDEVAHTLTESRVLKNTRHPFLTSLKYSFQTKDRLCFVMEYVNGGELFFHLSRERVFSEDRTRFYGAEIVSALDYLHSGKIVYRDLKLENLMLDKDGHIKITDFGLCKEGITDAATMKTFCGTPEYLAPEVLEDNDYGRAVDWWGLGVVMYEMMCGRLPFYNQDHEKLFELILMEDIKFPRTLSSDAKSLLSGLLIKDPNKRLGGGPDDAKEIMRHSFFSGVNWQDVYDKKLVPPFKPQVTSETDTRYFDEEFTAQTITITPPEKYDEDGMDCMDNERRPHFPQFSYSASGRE", "assay": "Inhibition of AKT3"}, "[2]": {"target": "Serine/threonine-protein kinase MARK1 (Homo sapiens) (UniProt Q9P0L2)", "sequence (Q9P0L2 whole entry, looked up)": "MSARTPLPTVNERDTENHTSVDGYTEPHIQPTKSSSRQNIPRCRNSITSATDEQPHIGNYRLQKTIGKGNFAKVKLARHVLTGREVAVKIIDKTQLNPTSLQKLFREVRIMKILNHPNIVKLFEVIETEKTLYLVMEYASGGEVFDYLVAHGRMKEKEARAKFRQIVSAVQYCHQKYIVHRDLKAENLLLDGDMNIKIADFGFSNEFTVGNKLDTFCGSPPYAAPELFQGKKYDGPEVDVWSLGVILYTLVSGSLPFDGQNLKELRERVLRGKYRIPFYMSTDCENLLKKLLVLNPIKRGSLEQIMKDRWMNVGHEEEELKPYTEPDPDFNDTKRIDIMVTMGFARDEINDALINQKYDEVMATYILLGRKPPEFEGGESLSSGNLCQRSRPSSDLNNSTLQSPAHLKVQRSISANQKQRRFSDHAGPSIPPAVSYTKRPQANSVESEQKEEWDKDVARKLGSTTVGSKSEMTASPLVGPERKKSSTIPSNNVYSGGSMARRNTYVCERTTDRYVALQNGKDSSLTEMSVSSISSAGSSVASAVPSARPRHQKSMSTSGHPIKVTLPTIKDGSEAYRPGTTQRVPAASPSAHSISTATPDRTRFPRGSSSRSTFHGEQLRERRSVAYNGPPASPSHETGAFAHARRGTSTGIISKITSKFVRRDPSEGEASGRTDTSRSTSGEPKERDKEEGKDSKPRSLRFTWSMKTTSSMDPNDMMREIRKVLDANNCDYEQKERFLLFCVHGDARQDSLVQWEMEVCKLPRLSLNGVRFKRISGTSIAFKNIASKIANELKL", "assay": "Inhibition of MARK1 at 1 uM"}, "[3]": {"target": "Serine/threonine-protein kinase BRSK2 (Homo sapiens) (UniProt Q8IWQ3)", "sequence (Q8IWQ3 whole entry)": "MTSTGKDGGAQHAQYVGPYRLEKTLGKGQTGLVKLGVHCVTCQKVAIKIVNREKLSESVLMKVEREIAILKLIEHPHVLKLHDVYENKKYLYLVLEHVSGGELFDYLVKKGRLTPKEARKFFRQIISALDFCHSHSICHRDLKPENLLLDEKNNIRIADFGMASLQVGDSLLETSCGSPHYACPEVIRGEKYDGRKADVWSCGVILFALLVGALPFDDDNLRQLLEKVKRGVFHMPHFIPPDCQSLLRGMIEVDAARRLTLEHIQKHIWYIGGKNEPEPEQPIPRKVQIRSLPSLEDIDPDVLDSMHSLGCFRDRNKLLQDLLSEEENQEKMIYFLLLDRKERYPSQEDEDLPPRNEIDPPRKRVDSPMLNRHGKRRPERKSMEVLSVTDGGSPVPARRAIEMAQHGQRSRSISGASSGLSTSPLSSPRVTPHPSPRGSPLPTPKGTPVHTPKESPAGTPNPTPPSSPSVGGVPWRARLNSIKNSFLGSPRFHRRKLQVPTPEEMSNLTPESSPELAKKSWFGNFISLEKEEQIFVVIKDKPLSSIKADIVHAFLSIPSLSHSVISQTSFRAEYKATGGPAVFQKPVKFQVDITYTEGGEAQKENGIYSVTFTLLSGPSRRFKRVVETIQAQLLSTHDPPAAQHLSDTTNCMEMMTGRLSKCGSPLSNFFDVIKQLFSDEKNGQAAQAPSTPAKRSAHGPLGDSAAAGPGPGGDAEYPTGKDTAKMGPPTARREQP", "assay": "Inhibition of BRSK2 at 1 uM"}, "[4]": {"assay": "Plasma concentration in rat at 3 mg/kg, iv after 4 hrs", "assay_type": "ADME, organism-based", "parameters": "dose 3 mg/kg, route intravenous"}}}
{"compound": "Cc1cnc(Nc2ccc(F)cc2Cl)nc1-c1c[nH]c(C(=O)N[C@H](CO)c2cccc(Cl)c2)c1", "values": [{"measurement": "Ki", "setting": "[1]", "value": "> 4", "unit": "µM"}, {"measurement": "inhibition", "setting": "[2]", "value": 12, "unit": "%"}, {"measurement": "inhibition", "setting": "[3]", "value": 2, "unit": "%"}, {"measurement": "concentration at 4 h", "setting": "[4]", "value": 123, "unit": "ng/mL"}]}
